# Assay results published in article PMC8379256, “A xanthene derivative, DS20060511, attenuates glucose intolerance by inducing skeletal muscle-specific GLUT4 translocation in mice” (Communications Biology, 2021).
# Several values for one entry are separate records, joined by “and”; a condition that tells them apart may be missing. Equal values may be shown once.
# Tests used:
# [1] = tested on: human liver microsomal fraction; experiment: Metabolic stability in human liver microsomes; type: in vitro ADME; details: after 1 h incubation, 1 μM
# Description: (§1) C57BL/6 mice that had been denied access to food overnight received the indicated oral dose of DS20060511, and blood samples were collected from the tail vein at the indicated timepoints. Plasma samples for quantitation of DS20060511 were prepared by centrifugation. Another group of mice received oral administration DS20060511 (30 mg kg^−1) and euthanized 75 min later. The soleus and gastrocnemius muscles, heart, and inguinal WAT were removed and homogenized in water (5 vol.) for quantitation of the drug concentrations. Plasma samples and tissue homogenates were analyzed by LC-MS/MS (Nexera MP System, SHIMADZU, Kyoto, Japan; API4000 System, SCIEX, Framingham, MA). The tissue concentrations of the compound were calculated by assuming the volume of 1 g of tissue is 1 mL. Evaluation of the metabolic stability of the compound to mouse and human cytochrome P450 (CYP) was conducted as follows. […] The results were expressed as the amount of compound remaining (expressed as a percentage), based on the ratio of the relative area to that in the control (without reaction).
# [2] = tested on: AMPKα; experiment: AMPKα phosphorylation in triceps surae muscle in vivo; parameters: species or system mouse; details: no-exercise condition, 10 mg kg−1, Fig. 6c
# Description: The tissue sample was homogenized with a Polytron homogenizer and lysed in a lysis buffer (25 mM Tris-HCl, pH 7.4, 100 mM NaF, 50 mM Na4P2O7, 10 mM EGTA, 10 mM EDTA, 10 mM Na3VO4, 1 mM PMSF, and 1% NP-40) on ice, and the lysate was centrifuged at 17,860 × g for 10 min at 4 °C. The supernatant was collected and the protein concentrations were determined by BCA assay (Thermo Fisher Scientific). Immunoprecipitation of IRβ and IRS1 was performed as described previously, using specific antibodies against IRβ (sc-711, Santa Cruz Biotechnology, Dallas, TX), IRS1 (06-248, Merck Millipore, Burlington, MA), and for detection of phosphotyrosine (05-321, Merck Millipore). Five milligrams of the extracts were incubated with specific antibodies against IRS1 for 1 h at 4 °C. Then, protein G-Sepharose was added, followed by incubation for 2 h at 4 °C. After washing three times, the immunocomplexes were subjected to immunoblotting.
# Phosphorylated or total protein of IRβ and IRS1 was resolved on 7% SDS-PAGE and analyzed using specific antibodies against IRβ, IRS1, and phosphotyrosine. […] Bound antibodies were detected with HRP-conjugated secondary antibodies using ECL detection reagents (GE Healthcare, Chicago, IL).
# [3] = tested on: WT and eNOSKO mice; experiment: ITT in wild-type and eNOS-knockout mice; type: in vivo, mouse; details: for Blood glucose: Insulin tolerance test, individual animals
# Description: Fig. 7 DS20060511 treatment decreases blood glucose levels in both WT and eNOSKO mice during oral GTT and ITT. a, b Blood glucose levels during oral GTT in wild-type (WT, n = 5) and eNOS-knockout (KO, n = 5–6) mice. Mice received vehicle or DS20060511 (10 mg kg^−1) orally 15 min before the glucose administration (3.0 g kg^−1). c, d Blood glucose levels during ITT in WT (n = 4) and KO (n = 5) mice. […] Values shown are means ± SEM. *P < 0.05, **P < 0.01, ***P < 0.001 vs. vehicle by the t-test.
# C57BL/6 and db/db mice were purchased from CLEA Japan, Tokyo, Japan. GLUT4- knockout mice were generated at RIKEN BioResource Center, Tsukuba, Japan, according to a previously described method. eNOS-knockout mice were kindly provided by Dr. Masato Tsutsui[41],[42]. The mice were group-housed under controlled illumination (12:12 h light-dark cycle) and temperature (23 ± 2 °C) conditions and given free access to normal chow and water, unless otherwise specified. The HFD-fed obese mice were prepared by feeding C57BL/6 mice a HFD for at least 8 weeks from 6 weeks of age. […] Male mice were used for all the experiments in this study. The animal care and experimental procedures used in the study were approved by The University of Tokyo Animal Care Committee (Approval number: 27-3), and the study was carried out in accordance with the Animal Experimentation Guidelines of Daiichi Sankyo Co., Ltd (Approved number: 20000411).
# Mice received the indicated oral dose of DS20060511 or vehicle at the same time as the intraperitoneal injection of insulin (Humulin) at the indicated dose. Blood glucose levels were measured using Glutest Every in blood samples collected from the tail vein at the indicated timepoints.
# [4] = tested on: mouse liver microsomal fraction; experiment: Metabolic stability in mouse liver microsomes; type: in vitro ADME; details: after 1 h incubation, 1 μM
# Description: as §1
structure (smiles),measurement,setting,value
COc1ccc2c(C)c(C(=O)O)ccc2c1C1C2=C(CC(C)(C)CC2=O)OC2=C1C(=O)CC(C)(C)C2 [DS20060511],compound remaining,[1],79%
same,AMPK phosphorylation level in the skeletal muscle,[2],remained unchanged
same,Blood glucose,"[3]; Wildtype, 10 mg/kg, 0 min",176 mg/dL and 163 mg/dL and 183 mg/dL and 182 mg/dL
same,Blood glucose,"[3]; Wildtype, 10 mg/kg, 20 min",96 mg/dL and 77 mg/dL and 89 mg/dL and 88 mg/dL
same,Blood glucose,"[3]; Wildtype, 10 mg/kg, 40 min",60 mg/dL and 67 mg/dL and 74 mg/dL
same,Blood glucose,"[3]; Wildtype, 10 mg/kg, 60 min",58 mg/dL and 71 mg/dL and 70 mg/dL and 52 mg/dL
same,Blood glucose,"[3]; Wildtype, 10 mg/kg, 80 min",57 mg/dL and 67 mg/dL and 68 mg/dL and 53 mg/dL
same,Blood glucose,"[3]; Wildtype, 10 mg/kg, 100 min",63 mg/dL and 84 mg/dL and 67 mg/dL and 58 mg/dL
same,Blood glucose,"[3]; Wildtype, 10 mg/kg, 120 min",57 mg/dL and 74 mg/dL and 70 mg/dL
same,Blood glucose,"[3]; eNOSKO, 30 mg/kg, 0 min",191 mg/dL and 175 mg/dL and 168 mg/dL and 169 mg/dL
same,Blood glucose,"[3]; eNOSKO, 30 mg/kg, 20 min",95 mg/dL and 89 mg/dL and 100 mg/dL and 120 mg/dL and 97 mg/dL
same,Blood glucose,"[3]; eNOSKO, 30 mg/kg, 40 min",69 mg/dL and 75 mg/dL and 81 mg/dL and 76 mg/dL
same,Blood glucose,"[3]; eNOSKO, 30 mg/kg, 60 min",61 mg/dL and 64 mg/dL and 40 mg/dL and 41 mg/dL and 51 mg/dL
same,Blood glucose,"[3]; eNOSKO, 30 mg/kg, 80 min",66 mg/dL and 55 mg/dL and 39 mg/dL and 48 mg/dL
same,Blood glucose,"[3]; eNOSKO, 30 mg/kg, 100 min",72 mg/dL and 53 mg/dL and 35 mg/dL and 34 mg/dL and 39 mg/dL
same,Blood glucose,"[3]; eNOSKO, 30 mg/kg, 120 min",76 mg/dL and 49 mg/dL and 55 mg/dL and 37 mg/dL and 39 mg/dL
same,blood glucose levels during ITT (in words),"[3]; WT and eNOSKO mice, 30 mg kg−1 po with 0.5 U kg−1 insulin ip",reduced even further
same,compound remaining,[4],89%
